Earlier results as cited in patent US20210386741A1, “FORMULATIONS OF IBRUTINIB” (Zhuhai Beihai Biotech Co., Ltd., priority 2016, published 2021).

How the values were obtained:
[1] = oral
human plasma protein = conditions: in vitro, no concentration dependence in the range of 50 to 1000 ng/mL

Structure (SMILES): C=CC(=O)N1CCC[C@@H](n2nc(-c3ccc(Oc4ccccc4)cc3)c3c(N)ncnc32)C1 [ibrutinib]
- Absolute bioavailability ([1]; fasted condition (n=8), 90% CI=2.1−3.9): 2.9%
- change of absolute bioavailability when combined with a meal ([1]; with a meal versus fasted): doubled
- increase of AUC on administration with food ([1]; with food compared with after overnight fasting): approximately 2 fold
- reversible binding to human plasma protein (human plasma protein): 97.3%
- solubility in water: practically insoluble in water
